The target in data set [1] is T1, NBP46 (Vigna unguiculata, UniProt Q9XFC9). As to the kind of experiment: phosphatase (phosphohydrolase) assay of NBP46. It is filed as biochemical, Dolichos biflorus. The conditions noted are these: in words; for hydrolysis of phosphate from substrate by NBP46 (phosphohydrolase activity): substrate specificity. As for the experimental part: (§1) The sequence similarities found between NBP46 and the above enzymes prompted the testing of NBP46 for phosphohydrolase activity. The reactions were conducted in 300 μL of 60 mM MOPS, pH 6.8, containing 1 mM MgCl2 in a microtiter plate using a multichannel pipette. At various time points up to 4 minutes, 30 or 60 μL aliquots were removed and assayed for inorganic phosphate by a photometric microtiter assay (Drueckes, P., et al., Anal. Biochem. 230:173 (1995)). Conditions were chosen so that less than 10% of the total substrate was converted to product, and the initial velocity (v) was determined from the above rate measurements.
(§2) N-BP46 (201 ng/ml) was incubated at 25° C. in the presence of various concentrations of substrate in a final volume of 100 μl of 60 mM MOPS, pH 6.8, containing 1 mM MgCl2. The reactions were conducted in a microtiter plate using a multichannel pipette. At various time points, 30 μl aliquots were removed and assayed for inorganic phosphate by a photometric microtiter assay (Drueckes, P. et al. Anal. Biochem. 230:173 (1995)), modified by using four parts ammonium molybdate reagent to one part 10% ascorbate for the reagent mixture. Conditions were chosen so that less than 10% of the total substrate was converted to product.

Data set [2] addresses T1, NBP46. As to the kind of experiment: competitive solid phase assay: inhibition of binding of 125I-NBP46 to HBG A+H-Sepharose. The settings on record: up to 50 mM concentrations. On the set-up: species or system Dolichos biflorus. An excerpt: In a preferred embodiment, a competitive solid phase assay is used to measure NBP46 activity (Etzler, M. E., Glycoconj. J. 11:395 (1994)). This assay measures the ability of various ligands to inhibit the binding of labeled NBP46 protein to pronase-digested hog gastric mucin blood group A+H substance (HBG A+H) conjugated to Sepharose® (Quinn, J. M. & Etzler, M. E., Arch. Biochem. Biophys. 258:535 (1987)).
The monomeric nature of NBP46 in solution precluded the use of conventional precipitin or agglutination assays in determining the carbohydrate binding specificity of this lectin. Therefore a complex carbohydrate binding assay was employed (Etzler, M. E., Glycoconj. J. 11:395 (1994)).
Hog blood group A+H substance was isolated from hog gastric mucin (Etzler, M. E., Glyconj. J. 11:395 (1994)) and de-N-acetylated as described in Etzler, M. E., et al., Arch. Biochem. Biophys. 141:588 (1970). After incubation at room temperature overnight, binding was measured as previously described (Etzler, M. E., Glyconj. J. 11:395 (1994)).

Data set [3] concerns the target T1, NBP46. As to the kind of experiment: competitive binding assay with chitin as solid phase: inhibition of binding of 125I-NBP46 to chitin. Also noted: species or system Dolichos biflorus. The settings on record: for inhibition of binding of 125I-NBP46 to chitin: relative inhibition, in words. As for the experimental part: B. japonicum USDA110 Nod factor (^▪); R. sp. NGR234(NGRA) Nod factor (^▴); R. sp. NGR234(NGRB) Nod factor (∇); R. meliloti Nod factor (^●), N-acetylglucosamine (□), chitin disaccharide (^▾); chitin tetrasaccharide (Δ); chitin pentasaccharide (♦), chitin hexasaccharide (O).
Using chitin as a solid phase, a competitive binding assay was utilized to examine the carbohydrate specificity of this protein (FIG. 3).
Solid phase binding assays were conducted using iodinated NBP46 and purified shrimp chitin powder (Sigma Chemical Company, St. Louis, Mo.), which was N-acetylated prior to use with 15 mM acetic anhydride in 0.5 M NaHCO3 for one hour at room temperature. The assays were conducted in a final volume of 100 μl of 10 mM MOPS buffer, pH 7.2, containing 0.02% Tween-20 and 0.01% NaN3.

Substrate in data set [4]: Nc1ncnc2c1ncn2[C@@H]1O[C@H](COP(=O)(O)OP(=O)(O)O)[C@@H](O)[C@H]1O
The data set can be described thus: phosphatase (phosphohydrolase) assay of NBP46. It is filed as biochemical, Dolichos biflorus. The conditions noted are these: other: 60 mM MOPS, pH 6.8, 1 mM MgCl2, 25.0 °C. As for the experimental part:
as §1, §2

On to `Nc1ncnc2c1ncn2[C@@H]1O[C@H](COP(=O)(O)OP(=O)(O)O)[C@@H](O)[C@H]1O` [ADP], for which the “hydrolysis of phosphate from substrate by NBP46 (phosphohydrolase activity)” value (“hydrolysis of phosphate from substrate” below) in data set [1] was “catalyzes the hydrolysis of phosphate”.
Same read-out and setting: with `Nc1ncnc2c1ncn2[C@@H]1O[C@H](COP(=O)(O)O)[C@@H](O)[C@H]1O` [AMP] the entry was “no activity”.
The same measure, in the same setting: with `Nc1ncnc2c1ncn2[C@@H]1O[C@H](COP(=O)(O)OP(=O)(O)OP(=O)(O)O)[C@@H](O)[C@H]1O` [ATP] the entry was “catalyzes the hydrolysis of phosphate”.
Same read-out and setting: with `Nc1ccn([C@@H]2O[C@H](COP(=O)(O)OP(=O)(O)OP(=O)(O)O)[C@@H](O)[C@H]2O)c(=O)n1` [CTP] the entry was “broad specificity for nucleotide triphosphates”.
Take `Nc1nc2c(ncn2[C@@H]2O[C@H](COP(=O)(O)OP(=O)(O)OP(=O)(O)O)[C@@H](O)[C@H]2O)c(=O)[nH]1` [GTP]: the “hydrolysis of phosphate from substrate” value in data set [1] is “broad specificity for nucleotide triphosphates”.
As for `C[C@H](O)[C@@H](O)[C@@H](O)[C@H](O)C=O` [L-fucose], the “inhibition of binding of 125I-NBP46 to HBG A+H-Sepharose” value in data set [2] was “no significant inhibition”. Further, the “inhibition of NBP46 binding to chitin” value in data set [3] (concentrations up to 50 mM) is listed as “No significant inhibition”.
On to `CC(=O)N[C@H]1C(O)O[C@H](CO)[C@H](O)[C@@H]1O` (stereo partly drawn) [N-acetyl-D-galactosamine], for which the “inhibition of binding of 125I-NBP46 to HBG A+H-Sepharose” value in data set [2] is reported as “no significant inhibition”.
In the case of `CC(=O)N[C@@H]1[C@@H](O)[C@H](O)[C@@H](CO)O[C@H]1O` [N-acetyl-D-glocosamine], the “phosphatase activity / Vmax of NBP46 after preincubation with ligand” value in data set [1] (concentration range as worded) is listed as “increase in enzyme activity is also obtained with low millimolar concentrations”. Moreover, in data set [3], the “inhibition of binding of 125I-NBP46 to chitin” value is given as “Inhibition of binding was obtained with high concentrations”.
For `O=c1ccn([C@@H]2O[C@H](COP(=O)(O)OP(=O)(O)OP(=O)(O)O)[C@@H](O)[C@H]2O)c(=O)[nH]1` [UTP], the “hydrolysis of phosphate from substrate” value in data set [1] is “broad specificity for nucleotide triphosphates”.
On to `CC(=O)N[C@H]1[C@H](O[C@H]2[C@H](O)[C@@H](NC(C)=O)C(O)O[C@@H]2CO)O[C@H](CO)[C@@H](O)[C@@H]1O` (stereo partly drawn) [chitin disaccharide], for which, in data set [3], the “inhibition of binding of 125I-NBP46 to chitin” value is “approximately ten-fold better inhibition than the monosaccharide”.
In the case of `CC(=O)NC1C(O)OC(CO)C(OC2OC(CO)C(OC3OC(CO)C(OC4OC(CO)C(OC5OC(CO)C(OC6OC(CO)C(O)C(O)C6NC(C)=O)C(O)C5NC(C)=O)C(O)C4NC(C)=O)C(O)C3NC(C)=O)C(O)C2NC(C)=O)C1O` (stereo not drawn) [chitin hexasaccharide], the “inhibition of binding of 125I-NBP46 to chitin” value in data set [3] is “slightly better inhibitors than the disaccharide”.
On the same count and under the same terms, next, `CC(=O)N[C@@H]1[C@@H](O)[C@H](O[C@@H]2O[C@H](CO)[C@@H](O[C@@H]3O[C@H](CO)[C@@H](O[C@@H]4O[C@H](CO)[C@@H](O[C@@H]5O[C@H](CO)[C@@H](O)[C@H](O)[C@H]5NC(C)=O)[C@H](O)[C@H]4NC(C)=O)[C@H](O)[C@H]3NC(C)=O)[C@H](O)[C@H]2NC(C)=O)[C@@H](CO)O[C@H]1O` [chitin pentasaccharide]: “slightly better inhibitors than the disaccharide”.
Consider `CCCCCC/C=C\CCCCCCCCCC(=O)O` [cis-vaccenic acid], for which the “inhibition of NBP46 binding to chitin” value in data set [3] (concentrations up to 1.2 mM) is recorded as “No significant inhibition”.
Take `O=C[C@H](O)[C@@H](O)[C@H](O)[C@H](O)COP(=O)(O)O` [glucose-6-phosphate]: the “hydrolysis of phosphate from substrate” value in data set [1] is listed as “no activity”.
As to `O=P(O)(O)OP(=O)(O)O` [pyrophosphate], the “hydrolysis of phosphate from substrate” value in data set [1] is “no activity”.

B1: NBP46 (Vigna unguiculata subsp. cylindrica) (protein)
chain: QYVGNSILLNHRKILPNQELLTSYAVIFDAGSSGSRVHVFNFDQNLDLLHIGNDLEFTKKIKPGLSSYADKPEKAAESLIPLLEEAEDVVPEELHPKTPLKLGATAGLRLLDGDAAEKILQAVREMFRNRSSLSVQPDAVSVIDGTQEGSYLWVTVNYLLGKLGKKFTKTVGVIDLGGASVQMAYAVSRNTAKNAPKPPQGEDPYMKKLVLKGKKYDLYVHSYLRYGNDAARVKIFKTTDGAASPCLLAGYEDIYRYSGESYNIYGPTSGANFNECRDLALQILRLNEPCSHENCTFGGIWDGGKGSGQKNLVVTSAFYYRSSEVGFVTPPNSKNRPLDFETAAKQACSLTFEEAKSTFPNVEKDKLPFVCVDFTYQYTLLVDGFGLDPEQEITVAEGIEYQDAIVETAWPLGTAIEAISSLPKFNRLMYFI
Regarding B1, in data set [4], the Km was 615 µM.

The term Km denotes the substrate concentration at which the rate is half of its maximum.

The record behind these values is patent US6465716B2, “Nod factor binding protein from legume roots” (The Regents of the University of California, priority 1997, dated 2002).
